Measurements published in the NIST ThermoML archive (doi:10.1021/je060490w).
“And” between values parts separate entries of the source, which are not always exact repeats. Equal values may be shown once. Numbers after ± are expanded uncertainties.

Columns and labels:
[1] = xn = mol fraction of the nth substance listed; details: Pendant drop shape
[2] = for surface tension liquid-gas: Pendant drop shape; for mass density: 101.33 kPa, Liquid

CCOC(C)OCC [1,1-diethoxyethane] + Cc1ccc(C)c(C)c1
[1]
Details	surface tension liquid-gas [mN/m]
298.15 K, x1 = 0.05	28.51 ± 0.32
298.15 K, x1 = 0.1	27.76 ± 0.31
298.15 K, x1 = 0.151	26.97 ± 0.31
298.15 K, x1 = 0.2005	26.29 ± 0.3
298.15 K, x1 = 0.2511	25.71 ± 0.3
298.15 K, x1 = 0.3005	25.14 ± 0.29
298.15 K, x1 = 0.3526	24.6 ± 0.29
298.15 K, x1 = 0.401	24.16 ± 0.28
298.15 K, x1 = 0.4538	23.73 ± 0.28
298.15 K, x1 = 0.5034	23.35 ± 0.28
298.15 K, x1 = 0.5513	23.01 ± 0.27
298.15 K, x1 = 0.5998	22.7 ± 0.27
298.15 K, x1 = 0.6519	22.41 ± 0.27
298.15 K, x1 = 0.7012	22.08 ± 0.26
298.15 K, x1 = 0.7499	21.85 ± 0.26
298.15 K, x1 = 0.8003	21.58 ± 0.26
298.15 K, x1 = 0.8491	21.42 ± 0.26
298.15 K, x1 = 0.9	21.21 ± 0.26
298.15 K, x1 = 0.9399	21.09 ± 0.26
298.15 K, x1 = 1	20.88 ± 0.25
308.15 K, x1 = 0.0488	27.35 ± 0.31
308.15 K, x1 = 0.0993	26.53 ± 0.3
308.15 K, x1 = 0.1486	25.79 ± 0.3
308.15 K, x1 = 0.2003	25.09 ± 0.29
308.15 K, x1 = 0.2497	24.51 ± 0.29
308.15 K, x1 = 0.3001	23.95 ± 0.28
308.15 K, x1 = 0.3499	23.47 ± 0.28
308.15 K, x1 = 0.4004	23.02 ± 0.27
308.15 K, x1 = 0.4534	22.6 ± 0.27
308.15 K, x1 = 0.5016	22.23 ± 0.27
308.15 K, x1 = 0.55	21.9 ± 0.26
308.15 K, x1 = 0.6017	21.54 ± 0.26
308.15 K, x1 = 0.6514	21.24 ± 0.26
308.15 K, x1 = 0.7003	20.96 ± 0.26
308.15 K, x1 = 0.7498	20.72 ± 0.25
308.15 K, x1 = 0.8007	20.46 ± 0.25
308.15 K, x1 = 0.8502	20.28 ± 0.25
308.15 K, x1 = 0.8989	20.09 ± 0.25
308.15 K, x1 = 0.9488	19.95 ± 0.25
308.15 K, x1 = 1	19.89 ± 0.25
313.15 K, x1 = 0.0498	26.73 ± 0.3
313.15 K, x1 = 0.0992	25.91 ± 0.3
313.15 K, x1 = 0.1501	25.09 ± 0.29
313.15 K, x1 = 0.2003	24.46 ± 0.29
313.15 K, x1 = 0.2496	23.86 ± 0.28
313.15 K, x1 = 0.3027	23.34 ± 0.28
313.15 K, x1 = 0.3505	22.89 ± 0.27
313.15 K, x1 = 0.4	22.43 ± 0.27
313.15 K, x1 = 0.4501	22.05 ± 0.26
313.15 K, x1 = 0.499	21.67 ± 0.26
313.15 K, x1 = 0.5463	21.37 ± 0.26
313.15 K, x1 = 0.6011	20.95 ± 0.26
313.15 K, x1 = 0.6503	20.68 ± 0.25
313.15 K, x1 = 0.7002	20.4 ± 0.25
313.15 K, x1 = 0.7491	20.14 ± 0.25
313.15 K, x1 = 0.7998	19.91 ± 0.25
313.15 K, x1 = 0.8507	19.72 ± 0.25
313.15 K, x1 = 0.899	19.53 ± 0.25
313.15 K, x1 = 0.9497	19.45 ± 0.24
313.15 K, x1 = 1	19.42 ± 0.24

Cc1ccc(C)c(C)c1 [1,2,4-trimethylbenzene]
[2]
Details	mass density [kg/m3]	surface tension liquid-gas
298.15 K	871.71 ± 0.59	29.3 ± 0.33 mN/m
308.15 K	863.68 ± 0.61	28.24 ± 0.32 mN/m
313.15 K	859.58 ± 0.62	27.67 ± 0.31 mN/m and 27.71 ± 0.31 mN/m

Cc1ccc(C)c(C)c1 [1,2,4-trimethylbenzene] + CCOC(C)OCC
[1], x2 = 0
Details	surface tension liquid-gas [mN/m]
298.15 K	29.3 ± 0.33
308.15 K	28.24 ± 0.32
313.15 K	27.71 ± 0.31

Cc1ccc(C)c(C)c1 [1,2,4-trimethylbenzene] + COC(C)(C)OC
[1], x2 = 0
Details	surface tension liquid-gas [mN/m]
298.15 K	29.3 ± 0.33
308.15 K	28.24 ± 0.32
313.15 K	27.71 ± 0.31
